The text below walks through data of DBAASP.

Assay in all cases: ≥ marks a high value that may be exact or a test limit, other limits are often not marked, values filed in µg/mL are converted to µM
For assay [1], the system named is Escherichia coli ATCC 25922.
The test system of assay [2] is Pseudomonas aeruginosa ATCC 27853.
In assay [3] the test system is Staphylococcus aureus ATCC 29213.
The subject of assay [4] is Staphylococcus aureus ATCC 25923.

In brackets after ≈: the same amount, converted by molar mass.

What is called MIC is the lowest concentration that inhibits growth of the organism. Turning to `CC[C@H](C)[C@H](NC(=O)[C@H](CCCCN)NC(=O)[C@H](CCCCN)NC(=O)[C@H](C)N)C(=O)N[C@@H](CCCN=C(N)N)C(=O)N[C@H](C(=O)N[C@@H](CCCN=C(N)N)C(=O)N[C@@H](CC(C)C)C(=O)N[C@@H](CO)C(=O)N[C@@H](C)C(=O)O)C(C)C` [AKKIRVRLSA], the MIC in assay [1] was 14 µM (≈ 16 µg/mL); in assay [2] it was 14 µM (≈ 16 µg/mL); in assay [3] it was more than 56.1 µM.

`CSCC[C@H](NC(=O)[C@H](CC(N)=O)NC(=O)[C@H](Cc1ccccc1)NC(=O)CNC(=O)[C@H](CC(=O)O)NC(=O)[C@H](CC(C)C)NC(=O)[C@H](CCCCN)NC(=O)[C@H](CCSC)NC(=O)[C@H](CCC(=O)O)NC(=O)[C@@H](N)CC(=O)O)C(=O)N[C@@H](Cc1cnc[nH]1)C(=O)N[C@@H](CC(C)C)C(=O)N[C@@H](CCC(=O)O)C(N)=O` [DEMKLDGFNMHLE]: the values for the MIC in assay [1] and in assay [4] were 20 µM (≈ 31.6 µg/mL) and 40.5 µM (≈ 63.9 µg/mL), respectively.

As for `CC(C)[C@H](NC(=O)[C@H](C)NC(=O)[C@@H](N)Cc1ccccc1)C(=O)N[C@H](C(=O)N[C@@H](Cc1c[nH]c2ccccc12)C(=O)N[C@@H](C)C(=O)N[C@H](C(=O)N[C@@H](CCCCN)C(=O)N[C@@H](Cc1c[nH]c2ccccc12)C(=O)N[C@@H](Cc1c[nH]c2ccccc12)C(=O)N[C@@H](CCCCN)C(=O)NCC(N)=O)[C@@H](C)O)[C@@H](C)O` [FAVTWATKWWKG], the minimum inhibitory concentration (MIC) in assay [1] is more than 125 µM; in assay [4], 100 µM (≈ 148 µg/mL).

With `CC[C@H](C)[C@H](NC(=O)[C@H](CCCN=C(N)N)NC(=O)[C@H](CCC(N)=O)NC(=O)[C@@H](NC(=O)[C@@H](NC(=O)[C@H](CCCN=C(N)N)NC(=O)[C@H](CCCCN)NC(=O)[C@@H](N)Cc1ccccc1)[C@@H](C)CC)C(C)C)C(=O)N[C@@H](CCCCN)C(=O)N[C@@H](CC(=O)O)C(=O)N[C@@H](CC(N)=O)C(=O)N[C@@H](CC(C)C)C(=O)N[C@@H](CCCN=C(N)N)C(=O)O` [FKRIVQRIKDNLR], the MIC is 20 µM (≈ 33.7 µg/mL) in assay [1] and more than 40 µM in assay [3].

For the compound `CC(C)[C@H](NC(=O)[C@@H]1CCCN1C(=O)[C@@H](N)Cc1ccccc1)C(=O)N[C@H](C(=O)N[C@@H](Cc1c[nH]c2ccccc12)C(=O)N[C@@H](CCCN=C(N)N)C(=O)N[C@H](C(=O)N[C@@H](CCCCN)C(=O)N[C@@H](Cc1c[nH]c2ccccc12)C(=O)N[C@@H](Cc1c[nH]c2ccccc12)C(=O)N[C@@H](CCCCN)C(=O)NCC(N)=O)[C@@H](C)O)[C@@H](C)O` [FPVTWRTKWWKG], the MIC in assay [1] was 15.5 µM (≈ 24.7 µg/mL); in assay [4], more than 3.1 µM.

For the compound `CC[C@H](C)[C@H](NC(=O)[C@H](CCSC)NC(=O)[C@H](C)NC(=O)[C@@H]1CCCN1C(=O)[C@@H](NC(=O)[C@@H](NC(=O)[C@H](CCCCN)NC(=O)[C@@H](NC(=O)[C@H](CC(C)C)NC(=O)CNC(=O)CN)[C@@H](C)CC)[C@@H](C)CC)C(C)C)C(=O)N[C@H]1CSSC[C@@H](C(=O)O)NC(=O)[C@H](CCCCN)NC(=O)[C@H](CCCCN)NC(=O)[C@H]([C@@H](C)O)NC(=O)[C@H](C(C)C)NC(=O)[C@H](C)NC1=O` [GGLIKIVPAMICAVTKKC], the MIC was more than 139 µM in assay [1], more than 139 µM in assay [2] and 139 µM (≈ 256 µg/mL) in assay [3].

With `CC[C@H](C)[C@H](NC(=O)CN)C(=O)NCC(=O)N[C@@H](CCCN=C(N)N)C(=O)N[C@@H](CCCCN)C(=O)N[C@@H](Cc1ccccc1)C(=O)N[C@@H](CC(C)C)C(=O)NCC(=O)NCC(=O)N[C@H](C(=O)N[C@@H](CCCCN)C(=O)N[C@H](C(=O)N[C@H](C(=O)N[C@@H](Cc1ccccc1)C(=O)N[C@@H](CCCN=C(N)N)C(=O)N[C@@H](CS)C(=O)NCC(=O)N[C@H](C(=O)N[C@@H](CCCCN)C(=O)N[C@@H](CC(=O)O)C(=O)N[C@@H](Cc1ccccc1)C(=O)N[C@@H](C)C(=O)N[C@@H](CO)C(=O)N[C@@H](CCCCN)C(=O)N[C@@H](Cc1cnc[nH]1)C(=O)N[C@@H](CC(C)C)C(=O)N[C@@H](Cc1ccc(O)cc1)C(N)=O)C(C)C)[C@@H](C)O)[C@@H](C)O)C(C)C` [GIGRKFLGGVKTTFRCGVKDFASKHLY], in assay [1], the minimum inhibitory concentration (MIC) worked out at 150 µM (≈ 448 µg/mL).

In assay [1], `CC[C@H](C)[C@H](NC(=O)CN)C(=O)N[C@@H](CCCCN)C(=O)N[C@@H](CC(=O)O)C(=O)N[C@@H](CC(C)C)C(=O)N[C@@H](CC(C)C)C(=O)N[C@@H](CCCCN)C(=O)NCC(=O)N[C@@H](C)C(=O)N[C@@H](C)C(=O)N[C@@H](CCCCN)C(=O)N[C@@H](C)C(=O)N[C@@H](CC(C)C)C(=O)N[C@H](C(=O)N[C@@H](CCCCN)C(=O)N[C@H](C(=O)N[C@H](C(=O)N[C@@H](CC(C)C)C(=O)N[C@@H](Cc1ccccc1)C(N)=O)C(C)C)[C@@H](C)O)C(C)C` [GIKDLLKGAAKALVKTVLF] came in with an MIC of 3 µM (≈ 5.95 µg/mL).

As to `CC[C@H](C)[C@H](NC(=O)[C@H](CCCN=C(N)N)NC(=O)[C@H](CCCCN)NC(=O)[C@H](CC(C)C)NC(=O)[C@H](CC(C)C)NC(=O)CN)C(=O)N[C@@H](CCCCN)C(N)=O` [GLLKRIK], the MIC in assay [1] and in assay [4] was more than 33.9 µM each time.

The compound `CC[C@H](C)[C@H](NC(=O)[C@H](CCCN=C(N)N)NC(=O)[C@H](CCCCN)NC(=O)[C@@H](NC(=O)[C@@H](NC(=O)CN)C(C)C)C(C)C)C(=O)N[C@@H](CCCCN)C(=O)N[C@H](C(=O)N[C@H](C(=O)N[C@H](C(N)=O)C(C)C)C(C)C)[C@@H](C)O` [GVVKRIKTVV] gave an MIC in assay [1] of more than 200 µM.

`CC(C)C[C@H](NC(=O)[C@@H](NC(=O)[C@H](CCCCN)NC(=O)CNC(=O)[C@H](Cc1ccccc1)NC(=O)[C@@H](NC(=O)[C@H](CC(=O)O)NC(=O)CNC(=O)[C@H](Cc1c[nH]c2ccccc12)NC(=O)CN)[C@@H](C)O)C(C)C)C(=O)N[C@@H](CCCCN)C(=O)N[C@@H](CC(N)=O)C(=O)N[C@@H](Cc1ccccc1)C(=O)N[C@@H](C)C(=O)N[C@@H](CCCCN)C(=O)N[C@H](C(=O)N[C@@H](C)C(=O)NCC(=O)N[C@H](C(=O)N[C@@H](CCCCN)C(=O)N[C@@H](C)C(=O)N[C@@H](C)C(=O)N[C@@H](CCCCN)C(=O)O)C(C)C)C(C)C` [GWGDTFGKVLKNFAKVAGVKAAK]: in assay [4], the MIC was more than 64 µM.

For the compound `C[C@H](NC(=O)[C@H](C)NC(=O)[C@H](CCCCN)NC(=O)[C@H](CCCCN)NC(=O)[C@H](C)NC(=O)[C@H](C)NC(=O)[C@H](CCCCN)NC(=O)[C@H](C)NC(=O)[C@H](C)NC(=O)[C@H](CCCCN)NC(=O)[C@H](CCCCN)NC(=O)[C@H](C)NC(=O)[C@H](C)NC(=O)[C@H](CCCCN)NC(=O)[C@H](C)NC(=O)[C@H](C)NC(=O)[C@H](CCCCN)NC(=O)[C@H](CCCCN)NC(=O)[C@H](C)NC(=O)[C@H](C)NC(=O)[C@@H](N)CCCCN)C(N)=O` [KAAKKAAKAAKKAAKAAKKAA], the MIC in assay [1] and in assay [4] was 8 µM (≈ 16.2 µg/mL) throughout.

With `CC(C)C[C@H](NC(=O)[C@H](CCCCN)NC(=O)CNC(=O)[C@H](CC(C)C)NC(=O)[C@H](CCCCN)NC(=O)[C@H](CCCCN)NC(=O)CNC(=O)[C@H](CC(C)C)NC(=O)[C@@H](N)CCCCN)C(=O)NCC(=O)N[C@@H](CCCCN)C(=O)N[C@@H](CCCCN)C(=O)N[C@@H](CC(C)C)C(=O)NCC(N)=O` [KLGKKLGKLGKKLG], the MIC in assay [1] and in assay [4] was 22 µM (≈ 32.3 µg/mL) in each case.

For the compound `CC(=O)N[C@@H](CCCCN)C(=O)N[C@@H](CC(C)C)C(=O)N[C@@H](CC(C)C)C(=O)N[C@@H](CCCCN)C(=O)N[C@@H](CC(C)C)C(=O)N[C@@H](CC(C)C)C(=O)N[C@@H](CCCCN)C(=O)N[C@@H](CCCCN)C(=O)N[C@@H](CC(C)C)C(=O)N[C@@H](CC(C)C)C(=O)N[C@@H](CCCCN)C(=O)N1CCC[C@H]1C(=O)N[C@@H](CC(C)C)C(=O)N[C@@H](CCCCN)C(N)=O` [KLLKLLKKLLKPLK], the values for the minimal inhibitory concentration (MIC) in assay [1] and in assay [3] were 28.3 µM (≈ 48.6 µg/mL) and 10 µM (≈ 17.2 µg/mL), respectively.

`CC(=O)N[C@@H](CCCCN)C(=O)N[C@@H](CC(C)C)C(=O)N[C@@H](CC(C)C)C(=O)N[C@@H](CCCCN)C(=O)N[C@@H](CC(C)C)C(=O)N[C@@H](CC(C)C)C(=O)N1CCC[C@H]1C(=O)N[C@@H](CCCCN)C(=O)N[C@@H](CC(C)C)C(=O)N[C@@H](CC(C)C)C(=O)N[C@@H](CCCCN)C(=O)N[C@@H](CC(C)C)C(=O)N[C@@H](CC(C)C)C(=O)N[C@@H](CCCCN)C(N)=O` [KLLKLLPKLLKLLK]: the MIC in assay [1] is 10 µM (≈ 17 µg/mL); in assay [3], 5 µM (≈ 8.51 µg/mL).

`NCCCC[C@H](NC(=O)[C@H](Cc1c[nH]c2ccccc12)NC(=O)[C@H](Cc1c[nH]c2ccccc12)NC(=O)[C@H](CCCCN)NC(=O)[C@H](CCCCN)NC(=O)[C@H](Cc1c[nH]c2ccccc12)NC(=O)[C@@H](N)CCCCN)C(=O)N[C@@H](Cc1c[nH]c2ccccc12)C(=O)N[C@@H](Cc1ccccc1)C(N)=O` [KWKKWWKWF] had an MIC in assay [1] of 2.81 µM (≈ 4 µg/mL).

On to `CC(C)C[C@H](NC(=O)[C@@H](NC(=O)[C@H](C)NC(=O)CNC(=O)[C@H](Cc1c[nH]c2ccccc12)NC(=O)[C@H](CC(N)=O)NC(=O)[C@@H](N)CC(C)C)C(C)C)C(=O)N[C@@H](CCCCN)C(=O)N[C@@H](Cc1cnc[nH]1)C(=O)N[C@H](C(=O)N[C@H](C(=O)N[C@@H](CCCCN)C(=O)O)C(C)C)C(C)C` [LNWGAVLKHVVK], for which the minimum inhibitory concentration (MIC) in assay [2] came to 32 µM (≈ 43.6 µg/mL). That is a double-digit micromolar value.

As to `CC(C)[C@H](NC(=O)[C@H](Cc1c[nH]c2ccccc12)NC(=O)[C@H](CCCCN)NC(=O)[C@@H](N)CCCN=C(N)N)C(=O)N[C@@H](CCCCN)C(=O)N[C@@H](Cc1c[nH]c2ccccc12)C(=O)N[C@@H](CCCN=C(N)N)C(=O)N[C@@H](CC(N)=O)C(=O)N[C@@H](CCCN=C(N)N)C(=O)O` [RKWVKWRNR], the MIC is 94.1 µM (≈ 125 µg/mL) in assay [1] and 23.5 µM (≈ 31.3 µg/mL) in assay [3].

`CC(C)C[C@H](NC(=O)[C@H](Cc1ccccc1)NC(=O)[C@H](C)NC(=O)[C@H](Cc1c[nH]c2ccccc12)NC(=O)[C@H](Cc1c[nH]c2ccccc12)NC(=O)[C@H](Cc1c[nH]c2ccccc12)NC(=O)[C@@H]1CCCN1C(=O)[C@H](Cc1ccccc1)NC(=O)[C@H](CCCCN)NC(=O)[C@H](CCCCN)NC(=O)[C@@H](N)C(C)C)C(=O)N[C@@H](CCCCN)C(=O)N[C@@H](CCCCN)C(N)=O` [VKKFPWWWAFLKK] yielded an MIC in assay [1] of 4 µM (≈ 7.05 µg/mL).

In the case of `NC(=O)[C@H](Cc1c[nH]c2ccccc12)NC(=O)[C@H](CCCN=C(N)N)NC(=O)[C@H](Cc1c[nH]c2ccccc12)NC(=O)[C@H](CCCN=C(N)N)NC(=O)[C@H](Cc1c[nH]c2ccccc12)NC(=O)[C@@H](N)Cc1c[nH]c2ccccc12` [WWRWRW], the minimal inhibitory concentration (MIC) in assay [1] amounted to 9.3 µM (≈ 9.99 µg/mL); in assay [4] it was 4.65 µM (≈ 5 µg/mL); in assay [2] it was 18.6 µM (≈ 20 µg/mL).
